What all share (format): cell-based
The target in test [1] is Ba/F3-EGFR-D770_N771insNPG cells (Homo sapiens, UniProt P00533, INS772GNP, cells depend on it). In words: Ba/F3 cell survival assay, EGFR D770_N771insNPG. The conditions noted are these: without IL-3, without EGF, 48 h; read-out: BA/F3 (insNPG) IC50. On the procedure: (§1) 293T cells from ATCC were transfected with pBABEpuro expression constructs for mutant EGFR (V769_D770insASV, D770_N771insNPG, N771_P772insH, H773_V774insNPH, E746_A750del, L858R, D770_N771insSVD C797S, E746_A750del C797S, L858R C797S, L861Q) or mutant ERBB2 (A775_G776insYVMA) and pCL-Eco packaging vector using Fugene-6 transfection reagent from Promega. Plates were incubated at 37° C. for 48 h. Retrovirus was harvested by filtering the media supernatant through a 0.45 μm filter.
(§2) Ba/F3 cells purchased from DSMZ were grown in RPMI+10% FBS+10 ng/mL IL-3 and infected with filtered retroviral supernatant at a 1:2 dilution. Polybrene was added to a concentration of 8 μg/mL, plates were spun for 90 min, and incubated overnight at 37° C. 2 μg/mL puromycin was added to the infected cells 24 h after infection and cells were continually grown in the presence of puromycin and 10 ng/mL IL-3. Following stably expressing Ba/F3 cell lines were generated: Ba/F3-EGFR-V769_D770insASV, Ba/F3-EGFR-D770_N771insNPG, Ba/F3-EGFR-N771_P772insH, Ba/F3-EGFR-H773_V774insNPH, Ba/F3-EGFR-E746_A750del, Ba/F3-EGFR-L858R, Ba/F3-EGFR-D770_N771 insSVD C797S, Ba/F3-EGFR-E746_A750del C797S, Ba/F3-EGFR-L858R C797S, Ba/F3-EGFR L861Q and Ba/F3-ERBB2-A775_G776insYVMA (Ba/F3-vector-control).
(§3) For cell survival assays, Ba/F3 cells were grown to a density of 1-2 million cells per mL, spun down and resuspended in media without IL-3, and replated at a concentration 200,000-500,000 cells per mL. The cells ectopically expressing WT EGFR plated with 10 ng/mL Millipore Culture grade EGF and Ba/F3 cells containing mutant EGFR or Mutant ERBB2 were cultivated without EGF. The cells ectopically expressing pBABEpuro empty vector were plated with 10 ng/mL IL-3.
(§4) 2 days later, cells were plated in 50 μL in a 384 well plate at a concentration of 4000 cells per well for cells assayed in the absence of IL-3 and 2000 cells per well for cells assayed in the presence of IL-3. 100 nL of compound was added to each well using a 100 nL pin head, and plates were incubated at 37° C. for 48 h.
(§5) Cell viability was measured by adding 20 μL of Cell Titer-Glo Luminescent Cell Viability Reagent diluted 1:3 in PBS. Plates were sealed with Perkin Elmer Top-Seal, inverted several times to mix, and immediately centrifuged at 1000 rpm for 2 min. Plates were incubated in low light conditions for 8-10 min and luminescence was measured.

In test [2] the target is Ba/F3-EGFR-V769_D770insASV cells (Homo sapiens, UniProt P00533, DUP767-769, cells depend on it). In words: Ba/F3 cell survival assay, EGFR V769_D770insASV. The conditions noted are these: without IL-3, without EGF, 48 h; read-out: BA/F3 (ASV) IC50. On the procedure:
as §1, §2, §3, §4, §5

The target in test [3] is Ba/F3-EGFR-N771_P772insH cells (Homo sapiens, UniProt P00533, INS771H, cells depend on it). In words: Ba/F3 cell survival assay, EGFR N771_P772insH. The conditions noted are these: without IL-3, without EGF, 48 h; read-out: BA/F3 (EGFR N771_772 insH) IC50. On the procedure: as §1, §2, §3, §4, §5
Test [4] has as its target Ba/F3-EGFR-H773_V774insNPH cells (Homo sapiens, UniProt P00533, DUP771-773, cells depend on it). The experiment in a line: Ba/F3 cell survival assay, EGFR H773_V774insNPH. The conditions noted are these: read-out: BA/F3 (EGFR 773_774insNPH) IC50 [mol/l]; without IL-3, without EGF, 48 h. On the procedure:
as §1, §2, §3, §4, §5

Test [5] deals with Ba/F3-EGFR-E746_A750del C797S cells (Homo sapiens, UniProt P00533, DEL746-750/C797S, cells depend on it). In words: Ba/F3 cell survival assay, EGFR E746_A750del C797S. The conditions noted are these: without IL-3, without EGF, 48 h; read-out: BA/F3 (EGFR E746_A750del C797S) IC50. The procedure: as §1, §2, §3, §4, §5
For a further test, the target named is Ba/F3-EGFR-WT cells (Homo sapiens, UniProt P00533). In words: Ba/F3 cell survival assay (Cell Titer-Glo), WT EGFR. The conditions noted are these: without IL-3, with 10 ng/mL EGF, 48 h; read-out: BA/F3 (wild type) IC50. In a few lines:
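Ba/F3 cells stably expressing WT EGFR or EGFR-insSVD from retroviral transduction were grown without IL-3 on 10 ng/mL EGF. Cells were plated at 4000 cells/well, treated with compound for 48 h at 37° C, and viability was read by CellTiter-Glo luminescence.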

Among the data in US12679836B2, “4H-pyrrolo[3,2-c]pyridin-4-one compounds” (Bayer Aktiengesellschaft, priority 2019, dated 2026) are GI50 values, retold here.

SMILES strings stand for the structures. Values joined by “and” are separate entries in the source; they are usually repeats but may differ in a detail not shown here. Equal entries are not always repeated.

Chain of Ba/F3-EGFR-V769_D770insASV cells (P00533 with tags, fused parts or gaps DUP767-769): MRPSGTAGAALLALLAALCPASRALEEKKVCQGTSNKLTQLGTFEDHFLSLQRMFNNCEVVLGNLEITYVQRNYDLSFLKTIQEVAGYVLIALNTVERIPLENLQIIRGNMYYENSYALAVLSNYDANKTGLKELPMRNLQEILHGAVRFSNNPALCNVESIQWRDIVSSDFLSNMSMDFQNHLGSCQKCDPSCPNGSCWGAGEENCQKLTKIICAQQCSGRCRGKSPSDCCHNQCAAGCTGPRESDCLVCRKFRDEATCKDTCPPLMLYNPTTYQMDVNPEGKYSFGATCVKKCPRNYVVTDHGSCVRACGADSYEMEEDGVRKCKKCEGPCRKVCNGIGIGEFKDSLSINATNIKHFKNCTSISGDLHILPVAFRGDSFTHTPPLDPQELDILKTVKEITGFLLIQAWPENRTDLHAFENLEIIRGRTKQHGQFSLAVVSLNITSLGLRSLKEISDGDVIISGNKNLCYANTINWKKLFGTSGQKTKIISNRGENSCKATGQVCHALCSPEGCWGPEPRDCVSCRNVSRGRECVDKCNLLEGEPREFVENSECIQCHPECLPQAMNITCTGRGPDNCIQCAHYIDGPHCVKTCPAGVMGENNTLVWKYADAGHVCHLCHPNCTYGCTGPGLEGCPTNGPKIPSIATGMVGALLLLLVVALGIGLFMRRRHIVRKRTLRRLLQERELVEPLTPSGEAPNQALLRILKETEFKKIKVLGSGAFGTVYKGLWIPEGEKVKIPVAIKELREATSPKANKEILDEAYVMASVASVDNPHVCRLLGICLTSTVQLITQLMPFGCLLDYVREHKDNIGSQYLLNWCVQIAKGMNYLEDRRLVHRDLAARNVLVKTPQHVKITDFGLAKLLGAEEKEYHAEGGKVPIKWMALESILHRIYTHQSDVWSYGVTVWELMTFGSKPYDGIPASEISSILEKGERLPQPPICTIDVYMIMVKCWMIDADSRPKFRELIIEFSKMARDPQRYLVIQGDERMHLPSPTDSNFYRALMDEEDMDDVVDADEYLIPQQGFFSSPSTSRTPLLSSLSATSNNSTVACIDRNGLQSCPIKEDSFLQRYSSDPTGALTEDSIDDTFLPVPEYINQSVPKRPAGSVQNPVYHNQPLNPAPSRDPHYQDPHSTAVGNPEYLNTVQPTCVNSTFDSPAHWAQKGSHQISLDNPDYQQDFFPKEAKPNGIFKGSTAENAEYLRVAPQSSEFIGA
Chain of Ba/F3-EGFR-E746_A750del C797S cells (P00533 with tags, fused parts or gaps DEL746-750/C797S): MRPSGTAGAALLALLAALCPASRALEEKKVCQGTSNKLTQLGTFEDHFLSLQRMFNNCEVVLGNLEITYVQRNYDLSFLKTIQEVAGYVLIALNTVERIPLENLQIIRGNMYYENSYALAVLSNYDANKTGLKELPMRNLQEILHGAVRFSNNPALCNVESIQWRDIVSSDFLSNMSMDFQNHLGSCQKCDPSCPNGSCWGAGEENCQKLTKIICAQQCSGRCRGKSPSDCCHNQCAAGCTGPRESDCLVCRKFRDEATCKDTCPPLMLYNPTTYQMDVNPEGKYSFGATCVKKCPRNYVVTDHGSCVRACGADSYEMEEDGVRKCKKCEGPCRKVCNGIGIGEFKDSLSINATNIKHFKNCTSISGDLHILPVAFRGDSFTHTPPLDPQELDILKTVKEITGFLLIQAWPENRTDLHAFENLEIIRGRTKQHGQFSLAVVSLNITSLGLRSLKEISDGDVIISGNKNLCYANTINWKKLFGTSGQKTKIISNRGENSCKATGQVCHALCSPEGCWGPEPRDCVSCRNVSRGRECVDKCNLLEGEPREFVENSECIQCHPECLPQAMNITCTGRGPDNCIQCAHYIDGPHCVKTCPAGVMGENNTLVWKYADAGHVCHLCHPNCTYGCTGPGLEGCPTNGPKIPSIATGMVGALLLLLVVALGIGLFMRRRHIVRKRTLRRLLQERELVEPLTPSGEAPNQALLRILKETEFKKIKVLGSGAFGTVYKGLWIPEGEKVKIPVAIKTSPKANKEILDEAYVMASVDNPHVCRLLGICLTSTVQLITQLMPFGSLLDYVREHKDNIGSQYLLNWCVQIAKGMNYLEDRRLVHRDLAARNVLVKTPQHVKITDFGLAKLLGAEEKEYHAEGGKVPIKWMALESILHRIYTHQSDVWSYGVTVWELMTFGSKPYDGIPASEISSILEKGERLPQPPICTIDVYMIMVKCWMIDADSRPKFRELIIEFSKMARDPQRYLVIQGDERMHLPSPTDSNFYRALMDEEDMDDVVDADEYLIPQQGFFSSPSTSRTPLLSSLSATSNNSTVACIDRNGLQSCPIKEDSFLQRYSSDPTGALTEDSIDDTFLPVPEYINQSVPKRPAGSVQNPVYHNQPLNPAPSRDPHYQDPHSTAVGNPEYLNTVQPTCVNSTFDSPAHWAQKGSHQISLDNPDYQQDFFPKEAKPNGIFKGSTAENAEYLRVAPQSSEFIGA
Chain of Ba/F3-EGFR-H773_V774insNPH cells (P00533 with tags, fused parts or gaps DUP771-773): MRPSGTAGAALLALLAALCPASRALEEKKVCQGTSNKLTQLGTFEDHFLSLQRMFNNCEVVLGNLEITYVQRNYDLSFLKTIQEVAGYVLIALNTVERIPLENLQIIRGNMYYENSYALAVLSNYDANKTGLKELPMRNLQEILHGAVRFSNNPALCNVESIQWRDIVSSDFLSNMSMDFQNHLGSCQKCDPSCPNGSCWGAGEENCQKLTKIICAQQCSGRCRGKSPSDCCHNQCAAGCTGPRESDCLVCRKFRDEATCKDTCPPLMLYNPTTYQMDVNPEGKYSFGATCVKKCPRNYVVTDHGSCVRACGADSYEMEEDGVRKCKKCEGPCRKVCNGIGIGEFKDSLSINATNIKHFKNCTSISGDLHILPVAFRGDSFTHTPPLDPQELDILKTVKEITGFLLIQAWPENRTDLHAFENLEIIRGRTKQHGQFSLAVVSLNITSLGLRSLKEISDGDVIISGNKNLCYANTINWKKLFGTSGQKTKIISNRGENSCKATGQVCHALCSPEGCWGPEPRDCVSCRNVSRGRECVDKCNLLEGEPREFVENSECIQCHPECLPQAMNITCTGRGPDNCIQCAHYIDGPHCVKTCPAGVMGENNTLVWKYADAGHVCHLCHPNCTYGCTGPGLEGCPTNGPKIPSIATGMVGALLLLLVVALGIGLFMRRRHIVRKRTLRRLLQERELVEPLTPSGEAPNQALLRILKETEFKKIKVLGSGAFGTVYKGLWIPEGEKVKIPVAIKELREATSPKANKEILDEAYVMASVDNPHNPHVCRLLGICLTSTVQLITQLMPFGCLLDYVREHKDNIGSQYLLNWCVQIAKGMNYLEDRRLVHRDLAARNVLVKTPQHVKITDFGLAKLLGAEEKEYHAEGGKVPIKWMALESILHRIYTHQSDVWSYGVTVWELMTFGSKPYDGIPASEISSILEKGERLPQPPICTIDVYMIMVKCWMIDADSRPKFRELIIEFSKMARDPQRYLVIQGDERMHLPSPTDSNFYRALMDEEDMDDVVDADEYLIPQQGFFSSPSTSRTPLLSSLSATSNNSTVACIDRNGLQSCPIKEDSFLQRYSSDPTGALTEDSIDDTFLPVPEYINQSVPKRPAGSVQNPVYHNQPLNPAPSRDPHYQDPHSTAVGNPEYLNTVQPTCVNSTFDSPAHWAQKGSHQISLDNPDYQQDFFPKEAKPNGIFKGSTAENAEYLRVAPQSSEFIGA
Chain of Ba/F3-EGFR-N771_P772insH cells (P00533 with tags, fused parts or gaps INS771H): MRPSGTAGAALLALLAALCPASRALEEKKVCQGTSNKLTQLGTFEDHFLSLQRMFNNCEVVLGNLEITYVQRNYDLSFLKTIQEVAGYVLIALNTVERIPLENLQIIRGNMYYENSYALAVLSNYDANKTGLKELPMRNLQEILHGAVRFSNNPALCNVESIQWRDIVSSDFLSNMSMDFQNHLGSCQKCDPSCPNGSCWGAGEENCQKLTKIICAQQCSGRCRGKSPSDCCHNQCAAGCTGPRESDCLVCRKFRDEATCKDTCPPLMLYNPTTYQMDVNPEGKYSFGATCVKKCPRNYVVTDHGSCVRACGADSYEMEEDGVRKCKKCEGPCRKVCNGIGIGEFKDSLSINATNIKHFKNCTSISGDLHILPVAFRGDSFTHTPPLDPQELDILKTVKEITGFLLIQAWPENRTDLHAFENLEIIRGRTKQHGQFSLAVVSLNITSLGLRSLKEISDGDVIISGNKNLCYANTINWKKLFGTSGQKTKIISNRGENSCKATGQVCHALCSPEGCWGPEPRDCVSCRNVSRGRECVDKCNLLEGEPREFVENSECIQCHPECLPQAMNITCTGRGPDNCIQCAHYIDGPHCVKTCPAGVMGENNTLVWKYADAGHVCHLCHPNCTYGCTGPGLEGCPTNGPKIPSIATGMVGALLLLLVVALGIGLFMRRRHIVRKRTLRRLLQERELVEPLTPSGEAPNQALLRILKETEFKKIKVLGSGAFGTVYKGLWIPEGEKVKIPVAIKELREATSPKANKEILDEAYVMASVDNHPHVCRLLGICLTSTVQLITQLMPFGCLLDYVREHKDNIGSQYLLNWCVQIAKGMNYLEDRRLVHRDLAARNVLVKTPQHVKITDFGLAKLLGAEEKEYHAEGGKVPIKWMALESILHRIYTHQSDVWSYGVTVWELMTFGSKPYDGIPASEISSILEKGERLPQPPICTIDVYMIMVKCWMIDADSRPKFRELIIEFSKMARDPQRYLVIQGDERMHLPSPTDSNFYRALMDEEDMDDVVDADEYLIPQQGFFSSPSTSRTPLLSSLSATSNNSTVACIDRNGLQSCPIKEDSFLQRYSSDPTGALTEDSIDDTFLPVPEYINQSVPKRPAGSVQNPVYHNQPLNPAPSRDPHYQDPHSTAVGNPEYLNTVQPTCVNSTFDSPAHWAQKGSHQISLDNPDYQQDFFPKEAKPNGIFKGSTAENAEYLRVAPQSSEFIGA

As for `COc1c(Cl)cccc1Nc1c(-c2ccncc2OCC2COC(C)(C)CO2)[nH]c2c1C(=O)NCC2` (single isomer, unassigned) [Example 32, 3-(3-chloro-2-methoxyanilino)-2-{3-[(5,5-dimethyl-1,4-dioxan-2-yl)methoxy]pyridin-4-yl}-1,5,6,7-tetrahydro-4H-pyrrolo[3,2-c]pyridin-4-one], the GI50 in test [1] was found to be 9.38 nM; in test [2] it was 13.2 nM; in test [3], 11 nM; in test [4], 47.3 nM; in test [5], 0.511 nM.

For `Cc1c(Cl)cccc1Nc1c(-c2ccncc2OCC2COC(C)(C)CO2)[nH]c2c1C(=O)NCC2` (single isomer, unassigned) [Example 46, 3-(3-chloro-2-methyl-anilino)-2-[3-[(5,5-dimethyl-1,4-dioxan-2-yl)methoxy]-4-pyridyl]-1,5,6,7-tetrahydropyrrolo[3,2-c]pyridin-4-one], the GI50 at Ba/F3-EGFR-WT cells came out at 376 nM; in test [1], 14.3 nM; in test [2], 11.7 nM; in test [3], 5.77 nM; in test [4] it was 38.9 nM.

As to `Cc1c(F)cccc1Nc1c(-c2ccncc2OCC2COCCO2)[nH]c2c1C(=O)NCC2` (single isomer, unassigned) [Example 48, 2-[3-(1,4-dioxan-2-ylmethoxy)-4-pyridyl]-3-(3-fluoro-2-methyl-anilino)-1,5,6,7-tetrahydropyrrolo[3,2-c]pyridin-4-one], the GI50 on Ba/F3-EGFR-WT cells is 379 nM; in test [1], 42.4 nM; in test [2], 41.8 nM; in test [3], 17.6 nM; in test [4], 142 nM; in test [5], 0.4 nM and 0.776 nM.

Take `CCc1c(Cl)cccc1Nc1c(-c2ccncc2OC[C@@H]2CN(C)CCO2)[nH]c2c1C(=O)NCC2` [Example 56, 3-(3-chloro-2-ethylanilino)-2-(3-{[(2S)-4-methylmorpholin-2-yl]methoxy}pyridin-4-yl)-1,5,6,7-tetrahydro-4H-pyrrolo[3,2-c]pyridin-4-one]: the GI50 at Ba/F3-EGFR-WT cells turned out to be 435 nM; in test [1], 6.96 nM; in test [2] it was 14.1 nM; in test [3] it was 7.36 nM; in test [4] it was 48.9 nM; in test [5], 0.423 nM.

As for `COc1c(F)cccc1Nc1c(-c2ccncc2OC[C@@H]2COCCN2C)[nH]c2c1C(=O)NCC2` [Example 20, 3-(3-fluoro-2-methoxyanilino)-2-(3-{[(3S)-4-methylmorpholin-3-yl]methoxy}pyridin-4-yl)-1,5,6,7-tetrahydro-4H-pyrrolo[3,2-c]pyridin-4-one], the GI50 at Ba/F3-EGFR-WT cells stood at 313 nM; in test [1], 14.7 nM; in test [2], 11.7 nM; in test [3], 6.59 nM; in test [4], 56.7 nM; in test [5], 0.349 nM.

In the case of `COc1c(Cl)cccc1Nc1c(-c2ccncc2OC[C@@H]2COCCN2C)[nH]c2c1C(=O)NCC2` [Example 21, 3-(3-chloro-2-methoxyanilino)-2-(3-{[(3S)-4-methylmorpholin-3-yl]methoxy}pyridin-4-yl)-1,5,6,7-tetrahydro-4H-pyrrolo[3,2-c]pyridin-4-one], the GI50 at Ba/F3-EGFR-WT cells stood at 341 nM; in test [1] it was 5.65 nM; in test [2], 7.78 nM; in test [3], 4.22 nM; in test [4], 27.6 nM; in test [5], 0.259 nM.

As to `COc1c(F)cccc1Nc1c(-c2ccncc2OCC2CN(C)CCO2)[nH]c2c1C(=O)NCC2` (single isomer, unassigned) [Example 14, 3-(3-fluoro-2-methoxyanilino)-2-{3-[(4-methylmorpholin-2-yl)methoxy]pyridin-4-yl}-1,5,6,7-tetrahydro-4H-pyrrolo[3,2-c]pyridin-4-one], the GI50 on Ba/F3-EGFR-WT cells was determined as 387 nM; in test [1] it was 12.5 nM; in test [2], 16.4 nM; in test [3], 7.6 nM; in test [4], 65.8 nM; in test [5], 0.379 nM.

On to `Cc1c(Cl)cccc1Nc1c(-c2ccncc2OC[C@@H]2CN(C)CCO2)[nH]c2c1C(=O)NCC2` [Example 42, 3-(3-chloro-2-methylanilino)-2-(3-{[(2S)-4-methylmorpholin-2-yl]methoxy}pyridin-4-yl)-1,5,6,7-tetrahydro-4H-pyrrolo[3,2-c]pyridin-4-one], for which the GI50 at Ba/F3-EGFR-WT cells was determined as 596 nM; in test [1], 12 nM; in test [2], 14.1 nM; in test [3], 6.01 nM; in test [4], 48.5 nM; in test [5], 0.494 nM.

Turning to `Cc1c(Cl)cccc1Nc1c(-c2ccncc2OC[C@H]2COCCO2)[nH]c2c1C(=O)NCC2` (single isomer, unassigned) [Example 50], the GI50 on Ba/F3-EGFR-WT cells came out at 361 nM; in test [1], 11.3 nM; in test [2], 10.4 nM; in test [3], 7.42 nM; in test [4], 40.3 nM; in test [5] it was 0.348 nM.

`COc1c(Cl)cccc1Nc1c(-c2ccncc2OC[C@@H]2COCCO2)[nH]c2c1C(=O)NCC2` (single isomer, unassigned) [Example 2]: the GI50 is 292 nM at Ba/F3-EGFR-WT cells; 4.44 nM in test [1]; 4.66 nM in test [2]; 7.48 nM in test [3]; 28.2 nM in test [4]; 0.22 nM in test [5].

As for `COc1c(F)cccc1Nc1c(-c2ccncc2OCC2COCCO2)[nH]c2c1C(=O)NCC2` (single isomer, unassigned) [Example 5, 2-{3-[(1,4-dioxan-2-yl)methoxy]pyridin-4-yl}-3-(3-fluoro-2-methoxyanilino)-1,5,6,7-tetrahydro-4H-pyrrolo[3,2-c]pyridin-4-one], the GI50 at Ba/F3-EGFR-WT cells was 262 nM; in test [1], 26.3 nM; in test [2], 28.7 nM; in test [3], 11.5 nM; in test [4] it was 79.3 nM; in test [5], 0.668 nM.

In the case of `O=C1NCCc2[nH]c(-c3ccncc3OCC3COCCO3)c(Nc3cccc(Cl)c3Cl)c21` (single isomer, unassigned) [Example 8, 3-(2,3-dichloroanilino)-2-{3-[(1,4-dioxan-2-yl)methoxy]pyridin-4-yl}-1,5,6,7-tetrahydro-4H-pyrrolo[3,2-c]pyridin-4-one], the GI50 is 121 nM at Ba/F3-EGFR-WT cells; 11.6 nM in test [1]; 9.62 nM in test [2]; 4.91 nM in test [3]; 23.1 nM in test [4]; 0.247 nM in test [5].
